pIC50: −log10 of the molar value. Calls of active or inactive are those of the source. The rule behind the calls is not given here.
Key:
[1] = tested on: Beta-N-acetylglucosaminidase (Canavalia ensiformis); test: Inhibitory activity against Beta-N-acetylglucosaminidase of Jack bean at 1 mM; No inhibition
[2] = target: Beta-galactosidase (Escherichia coli) (UniProt Q8VNN2); test: Inhibitory activity against Beta-D-galactosidase of Escherichia coli at 1 mM; No inhibition
[3] = tested on: Canavalia ensiformis; test: Inhibitory activity against Alpha-mannosidase of Jack bean at 1 mM; No inhibition
[4] = target: T1, Beta-galactosidase (Aspergillus niger) (UniProt P29853); test: Inhibitory activity against Beta-D-galactosidase of Aspergillus niger at 1 mM; No inhibition
T1 sequence (whole entry): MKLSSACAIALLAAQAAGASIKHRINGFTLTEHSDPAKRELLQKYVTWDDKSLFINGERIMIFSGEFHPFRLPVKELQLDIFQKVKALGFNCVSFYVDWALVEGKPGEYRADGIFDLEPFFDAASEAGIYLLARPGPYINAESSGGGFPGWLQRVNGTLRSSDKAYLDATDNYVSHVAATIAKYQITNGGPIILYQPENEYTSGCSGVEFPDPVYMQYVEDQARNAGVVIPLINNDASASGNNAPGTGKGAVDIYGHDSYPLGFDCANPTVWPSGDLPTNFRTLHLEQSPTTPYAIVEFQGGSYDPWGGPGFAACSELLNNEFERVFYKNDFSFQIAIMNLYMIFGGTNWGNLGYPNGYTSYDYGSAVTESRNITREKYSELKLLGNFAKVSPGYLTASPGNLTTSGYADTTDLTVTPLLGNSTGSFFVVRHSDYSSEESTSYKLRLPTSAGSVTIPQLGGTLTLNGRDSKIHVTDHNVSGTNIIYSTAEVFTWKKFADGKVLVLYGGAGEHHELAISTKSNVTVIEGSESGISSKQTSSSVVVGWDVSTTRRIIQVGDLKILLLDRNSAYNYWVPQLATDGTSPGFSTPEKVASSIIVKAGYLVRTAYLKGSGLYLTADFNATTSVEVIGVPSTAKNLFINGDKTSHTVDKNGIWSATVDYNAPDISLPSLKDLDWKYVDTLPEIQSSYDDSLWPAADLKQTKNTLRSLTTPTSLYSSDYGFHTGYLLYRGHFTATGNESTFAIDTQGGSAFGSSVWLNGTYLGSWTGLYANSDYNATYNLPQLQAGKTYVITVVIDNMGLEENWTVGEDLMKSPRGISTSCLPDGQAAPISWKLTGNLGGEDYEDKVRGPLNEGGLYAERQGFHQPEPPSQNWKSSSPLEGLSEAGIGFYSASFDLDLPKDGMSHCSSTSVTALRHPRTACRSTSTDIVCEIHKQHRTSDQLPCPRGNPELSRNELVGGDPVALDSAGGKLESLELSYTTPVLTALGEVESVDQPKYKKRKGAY

[5] = organism: Bos taurus; test: Inhibitory activity against alpha-L-Fucosidase of bovine epididymis at 1 mM; No inhibition
[6] = tested on: maltase (Oryza sativa); test: Inhibitory activity against maltase of rice at 1 mM; No inhibition
[7] = tested on: Helix pomatia; test: Inhibitory activity against Beta-mannosidase of Helix pomatia at 1 mM; No inhibition
[8] = tested on: Canavalia ensiformis; test: Inhibitory activity against Beta-D-galactosidase of Jack bean at 1 mM; No inhibition
[9] = tested on: Caldicellulosiruptor saccharolyticus; test: Inhibitory activity against Beta-glucosidase of Caldocellum saccharolyticum at 1 mM; No inhibition
[10] = target: Glucoamylase (Aspergillus niger) (UniProt P69328); test: Inhibitory activity against Amyloglucosidase of Aspergillus niger at 1 mM; No inhibition
Chain of Glucoamylase (Aspergillus niger) (P69328 whole entry): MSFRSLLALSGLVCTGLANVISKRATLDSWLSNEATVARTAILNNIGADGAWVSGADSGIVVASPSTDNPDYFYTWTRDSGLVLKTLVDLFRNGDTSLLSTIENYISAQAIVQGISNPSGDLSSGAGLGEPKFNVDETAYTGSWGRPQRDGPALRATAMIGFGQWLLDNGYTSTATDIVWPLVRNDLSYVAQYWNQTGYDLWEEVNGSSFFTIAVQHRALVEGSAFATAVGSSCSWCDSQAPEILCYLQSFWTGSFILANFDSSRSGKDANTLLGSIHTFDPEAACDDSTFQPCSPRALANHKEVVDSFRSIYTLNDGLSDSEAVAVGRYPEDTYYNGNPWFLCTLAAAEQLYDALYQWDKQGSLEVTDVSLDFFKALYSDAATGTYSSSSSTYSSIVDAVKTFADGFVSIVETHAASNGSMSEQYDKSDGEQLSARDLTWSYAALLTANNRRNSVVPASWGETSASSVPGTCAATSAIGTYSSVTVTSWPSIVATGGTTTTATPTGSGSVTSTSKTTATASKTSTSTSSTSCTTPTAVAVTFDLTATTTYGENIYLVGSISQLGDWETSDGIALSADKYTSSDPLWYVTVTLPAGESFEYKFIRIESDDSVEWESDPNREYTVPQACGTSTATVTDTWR

[11] = tested on: Beta-N-acetylglucosaminidase (Bos taurus); test: Inhibitory activity against Beta-N-acetylglucosaminidase of bovine epididymis B at 1 mM; No inhibition
[12] = tested on: Aspergillus oryzae; test: Inhibitory activity against Beta-D-galactosidase of Aspergillus oryzae at 1 mM; No inhibition
[13] = tested on: maltase (Saccharomyces cerevisiae); test: Inhibitory activity against maltase of yeast at 1 mM; No inhibition
[14] = tested on: Coffea arabica; test: Inhibitory activity against Alpha-galactosidase of coffee bean at 1 mM; No inhibition
[15] = tested on: Escherichia coli; test: Inhibitory activity against Alpha-galactosidase of Escherichia coli at 1 mM; No inhibition
[16] = tested on: isomaltase (Saccharomyces cerevisiae); test: Inhibitory activity against isomaltase of baker yeast at 1 mM; No inhibition
[17] = tested on: Rhizopus; test: Inhibitory activity against Amyloglucosidase of Rhizopus mold at 1 mM; No inhibition
[18] = tested on: Prunus dulcis; test: Inhibitory activity against Beta-glucosidase of almonds at 1 mM; No inhibition
[19] = tested on: Aspergillus niger; test: Inhibitory activity against Alpha-galactosidase of Aspergillus niger at 1 mM; No inhibition
[20] = tested on: Beta-N-acetylglucosaminidase (Bos taurus); test: Inhibitory activity against Beta-N-acetylglucosaminidase of bovine epididymis A at 1 mM; No inhibition
[21] = target: T2, Tissue alpha-L-fucosidase (Homo sapiens) (UniProt P04066); test: Inhibitory activity against alpha-L-Fucosidase of human placenta at 1 mM; No inhibition
T2 sequence (whole entry): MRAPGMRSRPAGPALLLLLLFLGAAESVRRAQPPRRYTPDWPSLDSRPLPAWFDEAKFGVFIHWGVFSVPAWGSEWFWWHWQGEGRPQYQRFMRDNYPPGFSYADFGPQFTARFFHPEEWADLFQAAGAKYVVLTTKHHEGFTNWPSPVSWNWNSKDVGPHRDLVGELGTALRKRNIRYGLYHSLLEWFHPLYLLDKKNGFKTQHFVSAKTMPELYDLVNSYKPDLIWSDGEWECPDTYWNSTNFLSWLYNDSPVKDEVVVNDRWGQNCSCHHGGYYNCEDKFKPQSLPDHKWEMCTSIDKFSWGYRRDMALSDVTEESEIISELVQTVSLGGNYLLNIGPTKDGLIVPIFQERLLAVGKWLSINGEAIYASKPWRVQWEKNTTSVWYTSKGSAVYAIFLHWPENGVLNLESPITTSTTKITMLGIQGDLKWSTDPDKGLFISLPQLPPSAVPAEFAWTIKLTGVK

[22] = target: T3, Beta-galactosidase (Bos taurus) (UniProt Q58D55); test: Percent inhibition against Beta-D-galactosidase of bovine liver at 1 mM
T3 sequence (whole entry): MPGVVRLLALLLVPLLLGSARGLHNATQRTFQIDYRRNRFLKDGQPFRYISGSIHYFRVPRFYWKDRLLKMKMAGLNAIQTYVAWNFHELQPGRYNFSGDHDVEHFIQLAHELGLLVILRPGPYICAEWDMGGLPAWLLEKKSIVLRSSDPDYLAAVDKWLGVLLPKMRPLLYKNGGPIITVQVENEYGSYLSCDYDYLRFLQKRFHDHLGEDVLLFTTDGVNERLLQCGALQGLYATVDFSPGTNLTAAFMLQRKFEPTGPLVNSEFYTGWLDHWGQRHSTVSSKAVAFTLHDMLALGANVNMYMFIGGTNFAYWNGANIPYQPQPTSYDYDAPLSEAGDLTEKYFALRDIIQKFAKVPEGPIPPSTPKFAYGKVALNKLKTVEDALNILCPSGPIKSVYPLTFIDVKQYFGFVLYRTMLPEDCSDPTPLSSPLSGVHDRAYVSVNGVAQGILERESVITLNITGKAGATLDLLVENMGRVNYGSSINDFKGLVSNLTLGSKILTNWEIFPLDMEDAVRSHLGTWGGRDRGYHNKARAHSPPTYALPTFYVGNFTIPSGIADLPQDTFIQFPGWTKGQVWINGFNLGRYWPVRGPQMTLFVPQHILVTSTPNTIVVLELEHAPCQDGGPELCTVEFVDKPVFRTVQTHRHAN

[23] = organism: Gallus gallus; test: Inhibitory activity against alpha-N-acetylgalactosaminidase of chicken liver at 1 mM; No inhibition
[24] = tested on: Prunus dulcis; test: Inhibitory activity against Alpha-mannosidase of Almonds at 1 mM; No inhibition
[25] = tested on: Prunus dulcis; test: Percent inhibition against Alpha-mannosidase of Almonds at 1 mM
[26] = tested on: Canavalia ensiformis; test: Percent inhibition against Alpha-mannosidase of Jack bean at 1 mM
[27] = target: Glucoamylase (Aspergillus niger) (UniProt P69328); test: Percent inhibition against Amyloglucosidase of Aspergillus niger at 1 mM
[28] = tested on: maltase (Oryza sativa); test: Inhibitory activity against maltase of rice at 1 mM
[29] = organism: Bos taurus; test: Percent inhibition against alpha-L-Fucosidase of bovine epididymis at 1 mM
[30] = target: T2, Tissue alpha-L-fucosidase (Homo sapiens); test: Percent inhibition against alpha-L-Fucosidase of human placenta at 1 mM
[31] = target: T4, Tissue alpha-L-fucosidase (Homo sapiens, UniProt P04066); test: Inhibitory concentration against alpha-L-Fucosidase of human placenta
T4 sequence (P04066 whole entry): T2 sequence (whole entry)

[32] = target: T1, Beta-galactosidase (Aspergillus niger); settings: 1 mM
Description: Percent inhibition against Beta-D-galactosidase of Aspergillus niger at 1 mM

Chain of Beta-galactosidase (Escherichia coli) (Q8VNN2 whole entry, looked up): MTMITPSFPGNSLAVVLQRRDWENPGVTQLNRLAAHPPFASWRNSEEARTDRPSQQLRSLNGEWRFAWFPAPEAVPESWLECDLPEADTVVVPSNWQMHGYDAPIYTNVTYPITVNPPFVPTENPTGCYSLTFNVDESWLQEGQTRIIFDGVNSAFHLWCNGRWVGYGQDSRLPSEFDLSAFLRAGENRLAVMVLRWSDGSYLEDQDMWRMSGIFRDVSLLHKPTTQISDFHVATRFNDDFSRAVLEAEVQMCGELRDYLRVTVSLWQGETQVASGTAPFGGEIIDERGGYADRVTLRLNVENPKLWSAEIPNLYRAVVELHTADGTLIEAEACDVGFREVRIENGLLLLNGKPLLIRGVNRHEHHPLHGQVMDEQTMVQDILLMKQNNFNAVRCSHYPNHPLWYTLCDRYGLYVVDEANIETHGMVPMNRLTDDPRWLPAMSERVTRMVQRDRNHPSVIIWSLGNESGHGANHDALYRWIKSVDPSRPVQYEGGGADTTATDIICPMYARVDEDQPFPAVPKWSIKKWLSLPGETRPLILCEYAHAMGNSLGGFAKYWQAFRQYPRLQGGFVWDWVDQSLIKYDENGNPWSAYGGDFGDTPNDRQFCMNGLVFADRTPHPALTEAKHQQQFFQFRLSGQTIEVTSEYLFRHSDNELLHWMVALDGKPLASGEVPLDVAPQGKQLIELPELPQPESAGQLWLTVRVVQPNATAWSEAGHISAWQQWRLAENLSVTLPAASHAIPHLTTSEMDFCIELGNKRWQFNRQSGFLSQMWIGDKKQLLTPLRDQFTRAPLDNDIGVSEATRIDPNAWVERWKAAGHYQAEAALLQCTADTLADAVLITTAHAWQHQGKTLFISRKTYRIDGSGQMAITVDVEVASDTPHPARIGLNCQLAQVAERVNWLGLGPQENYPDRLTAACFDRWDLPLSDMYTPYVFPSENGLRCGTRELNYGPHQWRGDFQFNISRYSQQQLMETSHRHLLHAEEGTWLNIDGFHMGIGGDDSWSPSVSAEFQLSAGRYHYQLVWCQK

With Cc1oc(C2NCC(O)C2O)cc1CO (configuration not stated) the inhibition [1] was “inactive”, the inhibition [2] was “inactive” and the inhibition [3] was “inactive”. The inhibition [4] was “inactive”, the inhibition [5] was “inactive” and the inhibition [6] was “inactive”. For the same compound, the inhibition [7] was “No inhibition”, the inhibition [8] was “inactive” and the inhibition [9] was “No inhibition”. For the same compound, the inhibition [10] was “inactive”, the inhibition [11] was “inactive” and the inhibition [12] was “inactive”. The inhibition [13] was “inactive”, the inhibition [14] was “inactive” and the inhibition [15] was “inactive”. For the same compound, the inhibition [16] was “inactive”, the inhibition [17] was “inactive” and the inhibition [18] was “inactive”. The inhibition [19] was “inactive”, the inhibition [20] was “inactive” and the inhibition [21] was “inactive”. For the same compound, the inhibition [22] was 50%, the inhibition [23] was “inactive” and the inhibition [24] was “inactive”.
CCNC(=O)c1cc(C2NCC(O)C2O)oc1C (configuration not stated) was tested, and the inhibition [2] was “inactive”, the inhibition [4] was “inactive” and the inhibition [10] was “inactive”. For the same compound, the inhibition [25] was 32%, the inhibition [26] was 29% and the inhibition [22] was 52%.
CCN(CC)C(=O)c1cc(C2NCC(O)C2O)oc1C (configuration not stated) was tested, and the inhibition [2] was “inactive”, the inhibition [4] was “inactive” and the inhibition [10] was “inactive”. It also gave an inhibition [25] of 31%, an inhibition [26] of 27% and an inhibition [22] of 58%.
Cc1oc(C2NCC(O)C2O)cc1C(=O)NC(C)C (configuration not stated) was tested, and the inhibition [2] was “inactive”, the inhibition [4] was “inactive” and the inhibition [27] was 23%. For the same compound, the inhibition [25] was 29% and the inhibition [22] was 38%.
In the case of Cc1oc(C2NCC(O)C2O)cc1C(=O)O (configuration not stated), the inhibition [1] was “inactive”, the inhibition [2] was “inactive” and the inhibition [3] was “inactive”. For the same compound, the inhibition [4] was “inactive”, the inhibition [5] was “inactive” and the inhibition [7] was “No inhibition”. For the same compound, the inhibition [8] was “inactive”, the inhibition [9] was “No inhibition” and the inhibition [10] was “inactive”. For the same compound, the inhibition [11] was “inactive”, the inhibition [12] was “inactive” and the inhibition [28] was “No inhibition”. For the same compound, the inhibition [13] was “inactive”, the inhibition [14] was “inactive” and the inhibition [15] was “inactive”. The inhibition [16] was “inactive”, the inhibition [17] was “inactive” and the inhibition [18] was “inactive”. The inhibition [19] was “inactive”, the inhibition [20] was “inactive” and the inhibition [21] was “inactive”. For the same compound, the inhibition [22] was 30%, the inhibition [23] was “inactive” and the inhibition [24] was “inactive”.
In the case of Cc1oc(C2NCC(O)C2O)cc1C(=O)Nc1ccccc1 (configuration not stated), the inhibition [1] was “inactive”, the inhibition [2] was “inactive” and the inhibition [3] was “inactive”. For the same compound, the inhibition [4] was “inactive”, the inhibition [6] was “inactive” and the inhibition [7] was “No inhibition”. For the same compound, the inhibition [8] was “inactive”, the inhibition [9] was “No inhibition” and the inhibition [29] was under 10%. The inhibition [10] was “inactive”, the inhibition [11] was “inactive” and the inhibition [12] was “inactive”. The inhibition [13] was “inactive”, the inhibition [14] was “inactive” and the inhibition [15] was “inactive”. The inhibition [16] was “inactive”, the inhibition [17] was “inactive” and the inhibition [18] was “inactive”. The inhibition [19] was “inactive”, the inhibition [30] was 51% and the inhibition [20] was “inactive”. The pIC50 [31] was 3.00, the inhibition [22] was 39% and the inhibition [23] was “inactive”. For the same compound, the inhibition [24] was “inactive”.
In the case of CCOC(=O)c1cc(C2NCC(O)C2O)oc1C (configuration not stated), the inhibition [2] was “inactive”, the inhibition [32] was 80% and the inhibition [10] was “inactive”. It also gave an inhibition [30] of 76%, an inhibition [26] of 38% and an inhibition [22] of 57%. For the same compound, the inhibition [24] was “inactive”.
